The structures appear in SMILES notation.

The values below come from patent EP1095657A2, “Compositions for the regulation of cytokine activity” (priority 1992, dated 1994).

Assay [1] concerns adjuvant arthritis in Lewis rats. Description: Adjuvant arthritis (AA) in rats. It is filed as in vivo.
Assay [2] relates to experimental DTH reaction in mice. Description: In vivo bioassay of inhibition of experimental DTH reactivity (oxazolone ear swelling). More on the design: species or system mice (BALB/c or CD1); key to effect on the experimental DTH reaction (monosaccharides): "N.E." indicates that no effect was observed at the tested dosage range of 0.000004-4 µg/gm mouse. To be noted: for DTH: at that dose, value in parentheses in the cell taken as positive control, not reported; for effect on the experimental DTH reaction (monosaccharides): dosage range of 0.000004-4 µg/gm mouse. As for the experimental part: Groups of inbred BALB/c (Jackson Laboratories, Bar Harbor, ME) or of outbred CD1 (Weizmann Institute Animal Breeding Center, Rehovot, Israel) mice are sensitized on the shaved abdominal skin with 100 µl of 2% oxazolone (OX) in acetone/olive oil (4/1, v/v) applied topically. DTH sensitivity is elicited 5 days later as follows: mice are challenged with 20 µl of 0.5% OX (10 µl administered topically to each side of the ear) in acetone/olive oil. A constant area of the ear is measured immediately before challenge and 24 and 48 h later with a Mitutoyo engineer's micrometer. The individual measuring ear swelling is blinded to the identity of the groups of mice. The increment (△) of ear swelling is expressed as the mean in units of 10^-2 mm or 10^-4 inch (+SE) depending on the micrometer that is used. Percent inhibition is calculated as follows: %Inhibition= 1-((Treated-negative control)/(positive control-negative control)) [formula]
Mice are treated with LMWH as in Example 5.1, injected the day before primary sensitization to OX. On the fifth day after sensitization to OX, the mice are challenged to induce a DTH reaction, as described above.
The positive control is the DTH reaction elicited in immunized mice in the absence of treatment with LMWH. The negative control is the background swelling produced by the antigen in naive (non-immunized) mice.
BALB/c mice (at least 5 mice per group) were sensitized on the shaved abdomen with 3% 4-ethoxymethylene-2-phenyl oxazolone (OX; BDH Chemicals, GB) in acetone/olive oil applied topically. DTH sensitivity was elicited 5 days later as follows. Mice were challenged with 0.5% OX in acetone/olive oil. The ear was measured immediately before challenge and 24 h later with Mitutoyo engineer's micrometer (Japan). The individual measuring the swelling of the ear was blinded to the identity of the groups of mice. To interfere with DTH response, the low molecular weight immuno-regulatory fractions, diluted in PBS, were administrated subcutaneously into the back of the treated mice at the indicated time schedules and concentrations. Treated mice were inspected during and after (>2 months) the treatment and no major side-effects were observed clinically.
In particular, CD1 mice (available from the Weizmann Institute Animal Breeding Center, Rehovot, Israel), 4-12 mice per group, were treated as described in Section 5.2 or 6.8.

Assay [3] concerns secretion of active TNF-α by activated human CD4+ T cells. Description: Bioassay of TNF-α activity using human CD4+ T cells derived from PBLs (human PBL bioassay). To be noted: for Bioassay of TNF Activity, in words: conc range of 1 µg/ml - 0.01 pg/ml, inconsistent = not the same result in all three bioassays; for "R" value: zero assigned where no effect is observed.
Where [4] appears, read: CD1 mice, s.c., higher effective dose range.
Setting [5] is: CD1 mice, s.c., inhibitory, 0 = no effect.

`N[C@H]1C(O)O[C@H](CO)[C@H](O)[C@@H]1O` (stereo partly drawn) [GalN, D-Galactosamine]: the “effect on AA, in words” value in assay [1] (s.c. weekly, different dosages (FIG. 38C)) was “inhibitory effects but to a much lesser degree than that shown by glucosamine”. Further, the Inhmax in assay [2] (CD1 mice, s.c.) is reported as 50%; in assay [2] (setting [4]) it was 67%. Also, in assay [2] (CD1 mice, s.c., dose giving Inhmax in the higher effective dose range), the Dose is reported as 0.12 µg/gm. Moreover, the “"R" value” is 5.58 x 10^2 % x (µg/gm)^-1 in assay [2] (setting [4]) and 1.25 x 10^6 % x (μg/gm)^-1 in assay [2] (setting [5]).
For `O=S(=O)(O)N[C@H]1C(O)O[C@H](CO)[C@@H](O)[C@@H]1OS(=O)(=O)O` (stereo partly drawn) [GlcN-2,3S, D-Glucosamine-2,3-disulfate], in assay [2] (CD1 mice, s.c.), the Inhmax was 68% and the DTH is listed as 6.3 ± 1 (19.7 ± 1.2) 10^-2 mm. The “"R" value” in assay [2] (setting [5]) is listed as 5.67 x 10^4 % x (μg/gm)^-1.
As for `O=S(=O)(O)N[C@H]1C(O)O[C@H](COS(=O)(=O)O)[C@@H](O)[C@@H]1O` (stereo partly drawn) [GlcN-2,6S, D-Glucosamine-2,6-disulfate], in assay [2] (CD1 mice, s.c.), the Inhmax was found to be 61% and the DTH was 7.7 ± 1 (19.7 ± 1.2) 10^-2 mm.
Take `O=S(=O)(O)N[C@H]1C(O)O[C@H](CO)[C@@H](O)[C@@H]1O` (stereo partly drawn) [GlcN-2S, D-Glucosamine-2-N-sulfate]: the “effect on the experimental DTH reaction (monosaccharides)” value (from here on “effect … (monosaccharides)”) in assay [2] (CD1 mice, s.c.) is recorded as “N.E”. Further, the “"R" value” in assay [2] (setting [5]) is 0 % x (μg/gm)^-1.
As for `N[C@H]1C(O)O[C@H](CO)[C@@H](O)[C@@H]1OS(=O)(=O)O` (stereo partly drawn) [GlcN-3S, D-Glucosamine-3-sulfate], in assay [2] (CD1 mice, s.c.), the “effect … (monosaccharides)” value is “N.E”. Further, the “"R" value” in assay [2] (setting [5]) was 0 % x (μg/gm)^-1.
As to `N[C@H]1C(O)O[C@H](COS(=O)(=O)O)[C@@H](O)[C@@H]1O` (stereo partly drawn) [GlcN-6S, D-Glucosamine-6-sulfate], the “effect … (monosaccharides)” value in assay [2] (CD1 mice, s.c.) is listed as “N.E”. The “"R" value” in assay [2] (setting [5]) is given as 0 % x (μg/gm)^-1.
`CC(=O)N[C@H]1C(O)O[C@H](CO)[C@@H](O[C@@H]2OC(C(=O)O)=C[C@H](O)[C@H]2O)[C@@H]1O` (stereo partly drawn) [H-0895, 4-deoxy-4-en-iduronic acid-(α-1,4)-2-deoxy-2-N-acetylglucosamine]: the “Bioassay of TNF Activity, in words” value in assay [3] is listed as “Inconsistent”. In addition, the “AA score against control, in words” value in assay [1] (0.1 and 0.4 ng/rat s.c. weekly, day 24) was “not substantially different from control levels”. Also, the “effect on AA, in words” value in assay [1] (0.1 and 0.4 ng/rat s.c. weekly, within about 2 weeks of induction) is “increased level of AA development”. In addition, in assay [2] (CD1 mice, s.c.), the “Inhmax column, value printed with +: augmentation of the DTH swelling” value is listed as “+92%”; the “dose giving the augmenting effect on swelling” value is reported as “about 1.2 picograms disaccharide per gram mouse”; the DTH is 37.3 ± 0.7 (18.9 ± 0.7) 10^-2 mm.
Regarding `O=C(O)C1=C[C@H](O)[C@@H](O)[C@H](O[C@H]2[C@H](O)[C@@H](NS(=O)(=O)O)C(O)O[C@@H]2CO)O1` (stereo partly shown) [H-1145], the “effect on the experimental DTH reaction, in words (disaccharide markers)” value (“effect … (disaccharide markers)” for short) in assay [2] (CD1 mice, s.c.) is “neutral and N.E”. Moreover, the “"R" value” in assay [2] (setting [5]) is given as 0 % x (μg/gm)^-1.
Turning to `CC(=O)N[C@H]1C(O)O[C@H](COS(=O)(=O)O)[C@@H](O[C@@H]2OC(C(=O)O)=C[C@H](O)[C@H]2O)[C@@H]1O` (stereo partly shown) [H-8642], in assay [3], the “Bioassay of TNF Activity, in words” value is recorded as “Inconsistent”. Further, in assay [2] (CD1 mice, s.c.), the “effect … (disaccharide markers)” value is reported as “N.E”. In assay [2] (setting [5]), the “"R" value” was 0 % x (μg/gm)^-1.
For `CC(=O)N[C@H]1C(O)O[C@H](CO)[C@@H](O[C@@H]2OC(C(=O)O)=C[C@H](O)[C@H]2OS(=O)(=O)O)[C@@H]1O` (stereo partly shown) [H-8767] the same measures were “Inconsistent”, “N.E” and 0 % x (μg/gm)^-1.
As for `N[C@H]1C(O)O[C@H](COS(=O)(=O)O)[C@@H](O[C@@H]2OC(C(=O)O)=C[C@H](O)[C@H]2OS(=O)(=O)O)[C@@H]1O` (stereo partly shown) [H-8892], in assay [3], the “Bioassay of TNF Activity, in words” value is “No effect” and the “"R" value” is listed as 0 % x (pg/ml)^-1. For the same compound, the “effect … (disaccharide markers)” value in assay [2] (CD1 mice, s.c.) is “neutral and N.E”. Also, the “"R" value” in assay [2] (setting [5]) was 0 % x (μg/gm)^-1.
Take `N[C@H]1C(O)O[C@H](COS(=O)(=O)O)[C@@H](O[C@@H]2OC(C(=O)O)=C[C@H](O)[C@H]2O)[C@@H]1O` (stereo partly shown) [H-9017]: in assay [3], the “Bioassay of TNF Activity, in words” value is on record as “No effect” and the “"R" value” is given as 0 % x (pg/ml)^-1. The “effect … (disaccharide markers)” value in assay [2] (CD1 mice, s.c.) was “neutral and N.E”. Further, the “"R" value” in assay [2] (setting [5]) is 0 % x (μg/gm)^-1.
Regarding `N[C@H]1C(O)O[C@H](CO)[C@@H](O[C@@H]2OC(C(=O)O)=C[C@H](O)[C@H]2OS(=O)(=O)O)[C@@H]1O` (stereo partly shown) [H-9142], the “Bioassay of TNF Activity, in words” value in assay [3] was “Inconsistent”. For the same compound, the “effect … (disaccharide markers)” value in assay [2] (CD1 mice, s.c.) was “neutral and N.E”. The “"R" value” in assay [2] (setting [5]) is 0 % x (μg/gm)^-1.
In the case of `O=C(O)C1=C[C@H](O)[C@@H](OS(=O)(=O)O)[C@H](O[C@H]2[C@H](O)[C@@H](NS(=O)(=O)O)C(O)O[C@@H]2COS(=O)(=O)O)O1` (stereo partly drawn) [H-9267, 2-O-sulfate-4-deoxy-4-en-iduronic acid-(α-1,4)-2-deoxy-2-N-sulfate-6-O-sulfateglucosamine], the “Bioassay of TNF Activity, in words” value in assay [3] is “Inconsistent”. The Inhmax is recorded as 64% in assay [2] (CD1 mice, s.c.) and 80% in assay [2] (maximum inhibition of DTH, subcutaneous). Further, in assay [2] (CD1 mice, s.c.), the DTH was 7.2 ± 1 (19.6 ± 1.2) 10^-2 mm. Also, the “"R" value” in assay [2] (setting [5]) is recorded as 1.60 x 10^5 % x (μg/gm)^-1; in assay [2] (inhibitory, maximum % inhibition of DTH divided by the dose giving it, s.c., 0 = no effect) it was 160,000 % x (µg/gm)^-1. Moreover, in assay [2] (at the dose giving Inhmax, subcutaneous), the “DTH Response” value is 3.5 ± 1 10^-2mm. Besides, the Dose in assay [2] (dose giving Inhmax, subcutaneous) turned out to be 0.0005 µg/gm mouse.
Turning to `CC(=O)N[C@H]1C(O)O[C@H](COS(=O)(=O)O)[C@@H](O[C@@H]2OC(C(=O)O)=C[C@H](O)[C@H]2OS(=O)(=O)O)[C@@H]1O` (stereo partly drawn) [H-9517, 2-O-sulfate-4-deoxy-4-en-iduronic acid-(α-1,4)-2-deoxy-2-N-acetyl-6-O-sulfateglucosamine], in assay [3], the “Bioassay of TNF Activity, in words” value is “Inconsistent^c”. Also, in assay [2] (CD1 mice, s.c.), the Inhmax is 62% and the DTH is reported as 7.6 ± 1 (20.4 ± 0.7) 10^-2 mm. For the same compound, in assay [2] (setting [5]), the “"R" value” is reported as 1.55 x 10^6 % x (μg/gm)^-1.
As for `CC(=O)N[C@H]1C(O)O[C@H](CO)[C@@H](O)[C@@H]1O` (stereo partly shown) [NAc-GlcN, N-Acetylglucosamine], in assay [2] (CD1 mice, s.c.), the “effect … (monosaccharides)” value was “N.E”. For the same compound, the “"R" value” in assay [2] (setting [5]) was 0 % x (μg/gm)^-1.
As for `C[C@@H]1C[C@H]2[C@@H]3CCC4=CC(=O)C=C[C@]4(C)[C@@]3(F)[C@@H](O)C[C@]2(C)[C@@]1(O)C(=O)COP(=O)(O)O` [dexamethasone phosphate], the “course of AA after treatment has ended, in words” value in assay [1] (100 µg per rat s.c. daily from day 12) is “suffered a relapse”. Also, the “effect on AA at 30 days post-induction, in words” value in assay [1] (weekly s.c. from day 12 to day 26, 120 ng disaccharide or 100 µg dexamethasone phosphate per rat) is listed as “only a moderate reduction in the severity of the AA score”.
